Measurements taken from ChEMBL document CHEMBL4840303, “Design, synthesis, biological evaluation and pharmacophore model analysis of novel tetrahydropyrrolo[3,4-c]pyrazol derivatives as potential TRKs inhibitors” (Eur J Med Chem, 2021).
pIC50: −log10 of the molar value.

Columns and labels:
[1] = target: High affinity nerve growth factor receptor (Homo sapiens, UniProt P04629); test: Inhibition of N-terminal GST-tagged human TRKA (436 to 790 residues) expressed in baculovirus infected Sf21 cells using TK as substrate in presence of ATP measured after 30 mins by HTRF assay
[2] = system: KM12; test: cells; settings: Homo sapiens, KM12, 72 h
Description: Antiproliferative activity against human KM12 cells assessed as inhibition of cell growth measured after 72 hrs by CCK-8 assay

[3] = target: T1, BDNF/NT-3 growth factors receptor (Homo sapiens, UniProt Q16620); test: Inhibition of N-terminal GST-tagged human TRKB (456 to 822 residues) expressed in baculovirus infected Sf21 cells using TK as substrate in presence of ATP measured after 40 mins by HTRF assay
[4] = system: A549; test: cells; settings: Homo sapiens, A549, 72 h
Description: Antiproliferative activity against human A549 cells assessed as inhibition of cell growth measured after 72 hrs by CCK-8 assay

[5] = system: THLE-2; test: cells; settings: Homo sapiens, THLE-2, 72 h
Description: Antiproliferative activity against human THLE-2 cells assessed as inhibition of cell growth measured after 72 hrs by CCK-8 assay

[6] = target: NT-3 growth factor receptor (Homo sapiens, UniProt Q16288); test: Inhibition of NT3-activated full length TRKC (unknown origin) by Cell-based beta-galactosidase PathHunter assay
[7] = target: T1, BDNF/NT-3 growth factors receptor; test: Inhibition of BDNF-activated full length TRKB (unknown origin) by Cell-based beta-galactosidase PathHunter assay

High affinity nerve growth factor receptor, sequence (P04629 whole entry, the tested form may be a part): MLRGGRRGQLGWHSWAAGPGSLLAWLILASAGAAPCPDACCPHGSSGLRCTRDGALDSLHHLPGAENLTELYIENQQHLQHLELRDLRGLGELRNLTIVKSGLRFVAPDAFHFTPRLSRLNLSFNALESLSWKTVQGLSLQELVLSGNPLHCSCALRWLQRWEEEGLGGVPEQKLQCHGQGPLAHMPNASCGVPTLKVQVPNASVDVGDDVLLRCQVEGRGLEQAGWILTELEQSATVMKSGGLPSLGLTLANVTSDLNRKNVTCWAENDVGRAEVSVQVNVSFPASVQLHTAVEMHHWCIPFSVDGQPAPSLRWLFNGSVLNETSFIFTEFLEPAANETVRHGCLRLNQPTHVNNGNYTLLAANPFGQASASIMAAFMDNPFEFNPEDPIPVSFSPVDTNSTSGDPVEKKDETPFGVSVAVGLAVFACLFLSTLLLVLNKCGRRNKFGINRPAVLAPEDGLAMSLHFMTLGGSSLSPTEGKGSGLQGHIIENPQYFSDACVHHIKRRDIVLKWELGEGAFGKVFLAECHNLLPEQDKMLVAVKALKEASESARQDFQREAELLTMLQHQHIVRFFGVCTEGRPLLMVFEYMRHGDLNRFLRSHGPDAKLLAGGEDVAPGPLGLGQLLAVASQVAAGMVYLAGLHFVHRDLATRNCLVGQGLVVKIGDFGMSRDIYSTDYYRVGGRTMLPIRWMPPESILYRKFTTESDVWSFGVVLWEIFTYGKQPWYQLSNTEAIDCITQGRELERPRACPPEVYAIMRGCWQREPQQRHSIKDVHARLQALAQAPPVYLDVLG
T1 sequence (Q16620 whole entry, the tested form may be a part): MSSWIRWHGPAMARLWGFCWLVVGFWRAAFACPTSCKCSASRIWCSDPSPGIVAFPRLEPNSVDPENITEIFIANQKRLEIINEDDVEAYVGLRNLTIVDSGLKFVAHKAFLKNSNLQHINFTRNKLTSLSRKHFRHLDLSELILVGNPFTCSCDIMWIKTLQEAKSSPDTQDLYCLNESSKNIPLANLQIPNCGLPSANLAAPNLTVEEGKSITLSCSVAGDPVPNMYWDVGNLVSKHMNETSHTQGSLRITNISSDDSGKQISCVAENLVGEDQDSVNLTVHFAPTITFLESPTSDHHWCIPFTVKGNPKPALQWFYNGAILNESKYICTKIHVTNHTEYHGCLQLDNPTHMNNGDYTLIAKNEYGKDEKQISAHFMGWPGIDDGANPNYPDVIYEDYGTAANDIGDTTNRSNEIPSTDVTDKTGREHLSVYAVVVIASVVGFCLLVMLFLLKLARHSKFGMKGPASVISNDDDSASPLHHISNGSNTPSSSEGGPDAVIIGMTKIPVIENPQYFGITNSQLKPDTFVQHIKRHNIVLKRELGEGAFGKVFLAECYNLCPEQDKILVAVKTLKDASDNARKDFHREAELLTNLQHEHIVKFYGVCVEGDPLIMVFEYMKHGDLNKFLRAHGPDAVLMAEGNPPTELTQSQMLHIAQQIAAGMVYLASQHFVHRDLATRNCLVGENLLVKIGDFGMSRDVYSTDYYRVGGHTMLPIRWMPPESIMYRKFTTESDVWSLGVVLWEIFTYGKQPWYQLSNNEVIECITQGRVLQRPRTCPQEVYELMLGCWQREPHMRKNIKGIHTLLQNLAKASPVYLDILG
NT-3 growth factor receptor, sequence (Q16288 whole entry): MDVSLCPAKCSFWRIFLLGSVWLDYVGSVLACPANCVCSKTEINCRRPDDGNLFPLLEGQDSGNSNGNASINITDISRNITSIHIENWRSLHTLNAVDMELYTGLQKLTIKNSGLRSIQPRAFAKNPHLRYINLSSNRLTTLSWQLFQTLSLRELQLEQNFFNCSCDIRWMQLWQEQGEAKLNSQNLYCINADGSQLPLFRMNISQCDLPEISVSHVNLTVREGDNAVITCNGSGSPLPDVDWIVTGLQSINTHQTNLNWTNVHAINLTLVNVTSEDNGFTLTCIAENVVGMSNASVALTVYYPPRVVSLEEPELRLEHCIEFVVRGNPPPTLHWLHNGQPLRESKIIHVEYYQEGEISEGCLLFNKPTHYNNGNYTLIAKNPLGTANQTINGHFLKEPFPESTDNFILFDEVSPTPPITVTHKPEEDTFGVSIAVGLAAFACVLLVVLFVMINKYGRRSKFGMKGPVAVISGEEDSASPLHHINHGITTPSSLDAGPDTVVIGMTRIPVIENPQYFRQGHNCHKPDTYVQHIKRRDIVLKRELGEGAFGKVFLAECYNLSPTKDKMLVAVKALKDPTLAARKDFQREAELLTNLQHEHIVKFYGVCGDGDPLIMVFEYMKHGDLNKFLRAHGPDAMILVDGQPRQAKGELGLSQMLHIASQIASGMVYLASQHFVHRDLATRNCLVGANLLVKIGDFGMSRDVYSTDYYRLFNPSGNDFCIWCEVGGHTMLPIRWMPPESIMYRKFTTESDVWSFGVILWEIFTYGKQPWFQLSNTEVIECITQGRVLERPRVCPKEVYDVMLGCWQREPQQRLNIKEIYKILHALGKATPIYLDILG

SMILES	pIC50 [1]	further results
CC1(C)c2[nH]nc(NC(=O)c3ccccc3)c2CN1Cc1cccc(F)c1F	6.70	
CN1CCN(c2cccc(C(=O)Nc3n[nH]c4c3CN(Cc3cccc(F)c3F)C4(C)C)c2)CC1	6.68	
CN1CCN(c2cccc(C(=O)Nc3n[nH]c4c3CN(Cc3cc(F)cc(F)c3)C4(C)C)c2)CC1	6.82	pIC50 [2]: < 6.00; pIC50 [3]: 6.72
CC1(C)c2[nH]nc(NC(=O)c3ccccc3)c2CN1Cc1cccc(Cl)c1	6.17	
CN(C)c1ccc(C(=O)Nc2n[nH]c3c2CN(Cc2cccc(F)c2F)C3(C)C)cc1	7.16	
CC1(C)c2[nH]nc(NC(=O)c3ccc(Br)cc3)c2CN1Cc1cccc(F)c1F	6.02	
Cc1ccc(F)c(CN2Cc3c(NC(=O)c4ccccc4)n[nH]c3C2(C)C)c1	6.06	
CC1(C)c2[nH]nc(NC(=O)c3ccc4ccccc4c3)c2CN1Cc1cccc(F)c1F	6.34	
CC1(C)c2[nH]nc(NC(=O)c3ccccc3)c2CN1Cc1cccc([N+](=O)[O-])c1	6.22	
CN1CCN(c2ccc(C(=O)Nc3n[nH]c4c3CN(Cc3cccc(F)c3F)C4(C)C)cc2)CC1	7.77	pIC50 [4]: 4.19; pIC50 [2]: 6.67; pIC50 [3]: 7.64; pIC50 [5]: < 4.00
CC1(C)c2[nH]nc(NC(=O)c3ccccc3)c2CN1Cc1ccccc1	5.91	
Cc1ncc(NC(=O)NC2c3ccccc3-c3ccccc32)c(-c2ccccc2)n1		pIC50 [6]: 5.60; pIC50 [7]: < 5.09
CC1(C)c2[nH]nc(NC(=O)c3ccccc3)c2CN1Cc1cccc(I)c1	5.87	
CC1(C)c2[nH]nc(NC(=O)c3ccccc3)c2CN1Cc1ccc(F)cc1F	5.63	
CC1(C)c2[nH]nc(NC(=O)c3ccc(N4CC[N+](C)(Cc5cc(F)cc(F)c5)CC4)cc3)c2CN1Cc1cc(F)cc(F)c1	7.02	
CC1(C)c2[nH]nc(NC(=O)c3ccc(Br)cc3)c2CN1Cc1cc(F)cc(F)c1	6.15	
CC1(C)c2[nH]nc(NC(=O)c3ccccc3)c2CN1Cc1c(F)cccc1F	6.28	
CC1(C)c2[nH]nc(NC(=O)c3ccc(N4CCOCC4)cc3)c2CN1Cc1cccc(F)c1F	7.54	pIC50 [4]: 4.05; pIC50 [2]: 6.84; pIC50 [3]: 7.46; pIC50 [5]: 4.31
CN(C)c1cccc(C(=O)Nc2n[nH]c3c2CN(Cc2cc(F)cc(F)c2)C3(C)C)c1	6.57	
CC1(C)c2[nH]nc(NC(=O)c3ccccc3)c2CN1Cc1cccc(C#N)c1	6.01	
CC1(C)c2[nH]nc(NC(=O)c3ccccc3)c2CN1Cc1cc(C(F)(F)F)cc(C(F)(F)F)c1	4.79	

SMILES	pIC50 [1]	further results
CC1(C)c2[nH]nc(NC(=O)c3ccc(F)cc3)c2CN1Cc1cc(F)cc(F)c1	6.46	
CC1(C)c2[nH]nc(NC(=O)c3ccc(N4CCOCC4)cc3)c2CN1Cc1cc(F)cc(F)c1	7.85	pIC50 [4]: < 4.00; pIC50 [2]: 6.68; pIC50 [3]: 7.57; pIC50 [5]: < 4.00
CN(C)c1ccc(C(=O)Nc2n[nH]c3c2CN(Cc2cc(F)cc(F)c2)C3(C)C)cc1	7.02	
CC1(C)c2[nH]nc(NC(=O)c3ccccc3)c2CN1Cc1cc(F)c(F)c(F)c1	5.16	
CC1(C)c2[nH]nc(NC(=O)c3ccccc3)c2CN1Cc1ccc(F)cc1	5.93	
CC1(C)c2[nH]nc(NC(=O)c3ccc(F)cc3)c2CN1Cc1cccc(F)c1F	6.68	
CC1(C)c2[nH]nc(NC(=O)c3ccccc3)c2CN1Cc1cccc(Br)c1	6.03	
Cc1ccc(CN2Cc3c(NC(=O)c4ccccc4)n[nH]c3C2(C)C)cc1F	6.03	
Cc1cccc(CN2Cc3c(NC(=O)c4ccccc4)n[nH]c3C2(C)C)c1	5.96	
CC1(C)c2[nH]nc(NC(=O)c3ccc4ccccc4c3)c2CN1Cc1cc(F)cc(F)c1	6.36	
CC1(C)c2[nH]nc(NC(=O)c3cccc(N4CCOCC4)c3)c2CN1Cc1cc(F)cc(F)c1	6.92	pIC50 [2]: < 6.00; pIC50 [3]: 6.77
CC1(C)c2[nH]nc(NC(=O)c3ccccc3)c2CN1Cc1ccc(F)c(F)c1	6.17	
CC1(C)c2[nH]nc(NC(=O)c3ccccc3)c2CN1Cc1cc(F)cc(F)c1	6.72	
CC1(C)c2[nH]nc(NC(=O)c3ccccc3)c2CN1Cc1cccc(F)c1	6.33	
CC1(C)c2[nH]nc(NC(=O)c3ccccc3)c2CN1Cc1ccccc1F	6.35	
CC1(C)c2[nH]nc(NC(=O)c3ccc4ncccc4c3)c2CN1Cc1cc(F)cc(F)c1	6.74	
CC1(C)c2[nH]nc(NC(=O)c3ccccc3)c2CN1Cc1cc(F)cc(C(F)(F)F)c1	6.00	
CC1(C)c2[nH]nc(NC(=O)c3ccccc3)c2CN1Cc1cc(F)ccc1F	6.32	
CC1(C)c2[nH]nc(NC(=O)c3cccc(N4CCOCC4)c3)c2CN1Cc1cccc(F)c1F	6.57	
COc1cccc(CN2Cc3c(NC(=O)c4ccccc4)n[nH]c3C2(C)C)c1	5.95	
CN(C)c1cccc(C(=O)Nc2n[nH]c3c2CN(Cc2cccc(F)c2F)C3(C)C)c1	6.38	
